For assay [1] the following is noted: Ser12>Ala12 mutation; described previously (Byres et al, 2008); cited from earlier work.
Assay [2] in a line: Neu5Ac/Neu5Gc glycan microarray analysis. Type of assay: binding. Conditions: ZBiotech Neu5Gc/Neu5Ac N-Glycan Array, FIG. 1A. The source says: A Neu5Ac/Neu5Gc glycan microarray (as previously used in Wang et al, 2018, Biophys Biochem Res Commun 500:765-771; ZBiotech Neu5Gc/Neu5Ac N-Glycan Array) was utilised to determine the binding of SubBA12 to sialylated glycans with SubB2M used as a control. This glycan array comprises over 40 match pairs of glycans covalently linked to the array slide surface. Each pair of glycans is identical apart from the presence of either a Neu5Ac or Neu5Gc moiety.
Neu5Ac/Neu5Gc glycan array slides were purchased from Z-Biotech (Aurora, Colorado, USA, https://www.zbiotech.com/neu5gc-neu5ac-n-glycan-array.html). A 16-subarray slide array was used and glycan array analysis of SubB2M and SubBA12 was performed as per the manufacturer's protocols. Arrays were scanned using a Innocan 1100AL laser scanner and analysed using Mapix array analysis software.

Assay [3] can be described thus: SPR analysis of glycan binding (all tested glycans). The note with it: lectin immobilized on CM5 chip; glycans up to a concentration of 20 μM; FIG. 1B. As to the method:
SubBA12 was analysed for binding to a range of Neu5Ac, Neu5Gc and non-sialylated synthetic oligosaccharides using SPR.
For glycan analysis, SubB2M was immobilized through flow cells 2 and 3 and SubBA12 was immobilized through flow cell 4 (capture levels: 5000-6000 Response Units (RU)) onto a series S sensor chip CM5 (GE) using the NHS capture kit. Flow cell 1 was run as a blank immobilization. Glycans purchased from Chemily Glycoscience (Atlanta, GA) were analysed across a five-fold dilution series in PBS at a maximum concentration of 20 μM. Analysis was run using single cycle analysis and double reference subtraction on the Biacore S200 evaluation software.
(Surface plasmon resonance follows binding to a sensor surface in real time, without labels.)

Entries after “also recorded” stand apart in the source; their conditions may differ.

As to “SubBA12: mutant form of SubB (Ser12>Ala12) having the amino acid sequence of SEQ ID NO: 4; lacks or has substantially reduced sialic acid binding”, the “binding to sialylated glycans” value in assay [1] is listed as “cannot bind”. Besides, in assay [2], the “binding to Neu5Ac-containing glycans on glycan array” value is recorded as “Essentially no binding; also recorded: little to no recognition” and the “binding to Neu5Gc-containing glycans on glycan array” value is on record as “Essentially no binding; also recorded: little to no recognition”. In assay [3], the “binding (concentration dependent interaction) to any of the tested glycans by SPR” value was “No binding; also recorded: No concentration dependent interactions”.

These data come from patent publication US20240239846A1, “METHODS OF ANALYSING A SAMPLE” (THE UNIVERSITY OF ADELAIDE, priority 2021, published 2024).
